Test results taken from ChEMBL document CHEMBL5150018, “Subtilisin-like Serine Protease 1 (SUB1) as an Emerging Antimalarial Drug Target: Current Achievements in Inhibitor Discovery” (J Med Chem, 2022).
One block for each molecule: values may come before it. *1 amine or outer side, *2 acyl side, *3 side chain or, on linkers, in order; H or OH if unused. Where a SMILES comes first, the peptide text is derived from it. [ ]: non-standard residue; d: D form. The star is where a group is joined. Abu(ψCOCO) = CC[C@H](N[*:1])C(=O)C(=O)[*:2]; X1 = NC(=O)CC[C@H](N[*:1])C(=O)C(=O)[*:2]; X2 = C[C@H](N[*:1])C(=O)C(F)(F)C(=O)[*:2]; Pentanoyl(4-Me) = CC(C)CCC(=O)*; Bn = c1ccc(C*)cc1; CF3 = FC(F)(F)*; NHcPr = C1CC1N*

How the values were obtained:
[1] = target: T1, Subtilisin-like protease 1 (Plasmodium falciparum, UniProt O61142); assay: Inhibition of Plasmodium falciparum SUB1 in intact schizonts
T1 sequence (O61142 whole entry): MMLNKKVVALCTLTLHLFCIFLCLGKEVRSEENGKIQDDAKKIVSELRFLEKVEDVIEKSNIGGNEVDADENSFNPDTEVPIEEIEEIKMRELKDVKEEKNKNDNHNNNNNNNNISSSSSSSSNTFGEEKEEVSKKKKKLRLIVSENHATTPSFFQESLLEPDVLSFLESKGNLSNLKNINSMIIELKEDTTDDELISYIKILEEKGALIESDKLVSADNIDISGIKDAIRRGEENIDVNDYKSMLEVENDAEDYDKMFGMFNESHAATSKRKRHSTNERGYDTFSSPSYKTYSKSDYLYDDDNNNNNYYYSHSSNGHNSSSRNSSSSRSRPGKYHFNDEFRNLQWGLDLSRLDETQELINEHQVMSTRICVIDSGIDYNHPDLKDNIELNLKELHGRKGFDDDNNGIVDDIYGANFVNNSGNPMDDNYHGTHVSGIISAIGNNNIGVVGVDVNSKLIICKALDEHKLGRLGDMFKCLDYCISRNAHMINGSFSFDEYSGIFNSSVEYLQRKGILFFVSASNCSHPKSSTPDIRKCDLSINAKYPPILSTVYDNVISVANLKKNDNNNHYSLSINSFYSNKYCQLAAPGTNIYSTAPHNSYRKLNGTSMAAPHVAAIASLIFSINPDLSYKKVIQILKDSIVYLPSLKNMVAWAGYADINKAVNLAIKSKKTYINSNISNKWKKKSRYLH

[2] = target: T1, Subtilisin-like protease 1; assay: Binding affinity to Plasmodium falciparum SUB1 using KLVSADNIDIS peptide as substrate by FRET assay
Plasmodium falciparum [3] = assay: Antimalarial activity against Plasmodium falciparum 3D7 assessed as inhibition of parasitic growth measured after 48 hrs; format: functional, organism-based; settings: 3D7, 48 h
Plasmodium falciparum [4] = assay: Antimalarial activity against Plasmodium falciparum Dd2 assessed as inhibition of parasitic growth measured after 48 hrs; format: functional, organism-based; settings: Dd2, 48 h
Plasmodium falciparum [5] = assay: Antimalarial activity against synchronized Plasmodium falciparum 3D7 infected in human RBC assessed as inhibition of parasite growth at schizont stage incubated for 4 to 8 hrs by Giemsa staining based microscopic analysis; format: functional; settings: 3D7, Erythrocyte, time 4-8 hrs, read-out: ED50 (the source's name)
Plasmodium falciparum [6] = assay: Antimalarial activity against synchronized Plasmodium falciparum 3D7 infected in human RBC assessed as inhibition of cell invasion incubated for 4 to 8 hrs by Giemsa staining based microscopic analysis; format: functional; settings: 3D7, Erythrocyte, time 4-8 hrs, read-out: ED50 (the source's name)
[7] = target: T1, Subtilisin-like protease 1; assay: Inhibition of recombinant Plasmodium falciparum SUB1 using SERA4st1F-6R1 as substrate by fluorescence spectrophotometer
[8] = target: T1, Subtilisin-like protease 1; assay: Inhibition of Plasmodium falciparum SUB1
Plasmodium falciparum [9] = assay: Antimalarial activity against Plasmodium falciparum 3D7 assessed as inhibition of parasite growth incubated for 96 hrs by SYBR Green dye based assay; format: functional, organism-based; settings: 3D7, 96 h
[10] = Inhibition of recombinant Plasmodium knowlesi SUB1 using SERA4st1F-6R1 as substrate by fluorescence spectrophotometer
[11] = Inhibition of recombinant Plasmodium vivax SUB1 using SERA4st1F-6R1 as substrate by fluorescence spectrophotometer
[12] = target: T1, Subtilisin-like protease 1; assay: Inhibition of recombinant C-terminal 6-His tagged Plasmodium falciparum SUB1 expressed in baculovirus expression system
[13] = Inhibition of recombinant C-terminal 6-His tagged Plasmodium vivax SUB1 expressed in baculovirus expression system
[14] = Inhibition of Plasmodium vivax SUB1
[15] = Inhibition of Bacillus licheniformis Subtilisin A

Compound: O=C(CCCCCNC(=O)CCCC[C@H]1SC[C@H]2NC(=O)N[C@H]21)NCCCCCC(=O)Nc1ccc2c(Cl)c(OCCc3ccccc3)oc(=O)c2c1
IC50 [1]: 18 µM

Compound: CSc1ccc(CCNC(=O)Cn2ncc3c([nH]c4ccccc43)c2=O)cc1
Ki [2]: 14.7 µM
IC50 (Plasmodium falciparum [3]): > 50 µM
IC50 (Plasmodium falciparum [4]): > 50 µM

Compound: O=C(Nc1ccc(-c2nc3cc(NC(=O)c4ccccc4)ccc3[nH]2)cc1)c1ccccc1
Ki [2]: 7.6 µM
IC50 (Plasmodium falciparum [3]): 1.1 µM
IC50 (Plasmodium falciparum [4]): 3.3 µM

Compound: Oc1ccc(C2Oc3c(c(O)cc4c3C3c5c(O)cc(O)c(O)c5OC(c5ccc(O)c(O)c5)(O4)C3O)CC2O)cc1O (stereo not given)
EC50 (Plasmodium falciparum [5]): 108 µM
EC50 (Plasmodium falciparum [6]): 25 µM

Compound: COc1ccc(Nc2cc(C)c3cc(NC(=O)c4cc5ccccc5[nH]4)ccc3n2)cc1
IC50 (Plasmodium falciparum [3]): 0.37 µM
IC50 (Plasmodium falciparum [4]): 0.45 µM

Compound: CC(=O)N[C@H](C(=O)N[C@H](C(=O)NCC(=O)N[C@@H](C)B(O)O)[C@@H](C)O)C1CCCC1
IC50 [8]: 9.3 µM
EC50 (Plasmodium falciparum [9]): 2.3 µM

Compound: CC(C)[C@H](NC(=O)Cc1ccccc1)C(=O)NCC(=O)N[C@@H](C)C(=O)C(F)(F)C(=O)NCC(=O)O
IC50 [7]: 1 µM

Compound: CC[C@H](C)[C@H](NC(C)=O)C(=O)N[C@H](C(=O)N[C@@H](C)C(=O)N[C@@H](C)C(=O)C(F)(F)F)[C@@H](C)OCc1ccccc1 (Ac-IT(Bn)AA-CF3)
IC50 [7]: > 50 µM

Compound: CC[C@H](C)[C@H](NC(C)=O)C(=O)N[C@H](C(=O)NCC(=O)N[C@@H](C)C(=O)C(F)(F)C(=O)NCC(=O)O)C(C)C (Ac-IVG[X2]G-OH)
IC50 [7]: 0.25 µM

Compound: CC[C@H](NC(=O)[C@H](C)NC(=O)[C@@H](NC(=O)[C@@H](NC(=O)[C@H](CCCCN)NC(C)=O)[C@@H](C)CC)[C@@H](C)O)C(=O)C(=O)NC1CC1 (Ac-KITA[Abu(ψCOCO)]-NHcPr)
IC50 [12]: 6 µM
IC50 [13]: 12 µM

Compound: CC[C@H](C)[C@H](NC(=O)[C@H](CCCCN)NC(C)=O)C(=O)N[C@H](C(=O)N[C@@H](C)C(=O)N[C@@H](C)C(=O)C(F)(F)C(=O)NCC(=O)O)[C@@H](C)O (Ac-KITA[X2]G-OH)
IC50 [10]: 1.12 µM
IC50 [11]: 2.5 µM

Compound: CC[C@H](C)[C@H](NC(=O)[C@H](CCCCN)NC(=O)CCC(C)C)C(=O)N[C@H](C(=O)N[C@@H](C)C(=O)N[C@@H](CCC(N)=O)C(=O)C(=O)N[C@@H](CC(=O)O)C(=O)N[C@@H](CC(=O)O)C(=O)N[C@@H](CCC(N)=O)C(=O)N[C@@H](CCC(N)=O)C(N)=O)[C@@H](C)O ({Pentanoyl(4-Me)}-KITA[X1]DDQQ-NH2)
IC50 [8]: 17.8 µM
IC50 [14]: 10.5 µM

Compound: CC1(C)CC[C@]2(C(=O)O)CC[C@]3(C)C(=CC[C@@H]4[C@@]5(C)C[C@@H](O)[C@H](O)C(C)(C)[C@@H]5CC[C@]43C)[C@@H]2C1 [MASLINIC ACID]
IC50 [15]: 59.3 µM

The next lines start with results.

IC50 [7]: > 50 µM
Compound: CC[C@H](C)[C@H](NC(C)=O)C(=O)N[C@H](C(=O)N[C@@H](C)C(=O)N[C@@H](C)C(=O)C(F)(F)C(=O)O)[C@@H](C)O

IC50 [7]: 17 µM
Compound: Nc1cc2nc(Nc3ccc(Br)cc3)c(Nc3ccc(Br)cc3)nc2cc1Cl

IC50 [8]: 5.7 µM
Compound: CC(=O)N[C@H](C(=O)N[C@H](C(=O)NCC(=O)N[C@@H](C)B(O)O)C(C)C)C1CCCC1
EC50 (Plasmodium falciparum [9]): 0.26 µM

Ki [2]: 30 µM
Compound: COc1cc(Cl)c(C)cc1NC(=O)Cn1c(=O)n(CC(=O)NC2CCCC2)c(=O)c2ccccc21
IC50 (Plasmodium falciparum [3]): > 50 µM
IC50 (Plasmodium falciparum [4]): > 50 µM

IC50 [8]: 0.37 µM
Compound: CC(=O)N[C@H](C(=O)N[C@H](C(=O)NCC(=O)NC(C)C(=O)C(=O)NCCC(=O)O)[C@@H](C)O)C1CCCC1 (stereo not given in full)

IC50 [7]: 14 µM
Compound: Clc1cc(Nc2nc3ccccc3nc2Nc2ccc(Br)c(Cl)c2)ccc1Br

IC50 [8]: 0.069 µM
Compound: CC[C@H](C)[C@H](NC(C)=O)C(=O)N[C@H](C(=O)NCC(=O)N[C@@H](C)B(O)O)[C@@H](C)O
EC50 (Plasmodium falciparum [9]): 1.8 µM

IC50 [8]: 7.8 µM
Compound: CC(=O)N[C@H](C(=O)N[C@@H](C)C(=O)NCC(=O)N[C@@H](C)B(O)O)C1CCCC1
EC50 (Plasmodium falciparum [9]): 0.34 µM

Ki [2]: 30.1 µM
Compound: CCc1cccc(NC(=O)c2ccc3c(=O)n4nc(Nc5cc(C)ccc5C)sc4nc3c2)c1
IC50 (Plasmodium falciparum [3]): 17.1 µM
IC50 (Plasmodium falciparum [4]): 22.3 µM

IC50 [8]: 4.6 µM
Compound: CC(=O)N[C@H](C(=O)N[C@H](C(=O)NCC(=O)N[C@H]1CCOB1O)[C@@H](C)O)C1CCCC1
EC50 (Plasmodium falciparum [9]): 15 µM

IC50 [7]: 11 µM
Compound: CS(=O)(=O)Nc1cc2nc(Nc3ccc(Br)cc3)c(Nc3ccc(Br)cc3)nc2cc1Cl

IC50 [7]: 10 µM
Compound: Brc1ccc(Nc2nc3ccccc3nc2Nc2ccc(Br)cc2)cc1

IC50 [10]: 0.68 µM
IC50 [11]: 2.2 µM
Compound: CC[C@H](C)[C@H](NC(C)=O)C(=O)N[C@H](C(=O)N[C@@H](C)C(=O)N[C@@H](C)C(=O)C(F)(F)C(=O)NCC(=O)O)[C@@H](C)O (Ac-ITA[X2]G-OH)
